This note sets out measurements from patent US7935682B2, “Wound healing dressing for enhancing fibrocyte formation” (William Marsh Rice University, priority 2002, dated 2011).

In the experiment the test system is monocyte to fibrocyte differentiation (PBMC). Kind of experiment: Fibrocyte differentiation assay: PBMC cultured in serum-free medium, fibrocytes enumerated by morphology. The experiment is classed as cell-based, human. Particulars: for ability to inhibit fibrocyte differentiation: commercially available purified proteins, 6 days; for ability to inhibit fibrocyte differentiation / number of fibrocytes in culture: PBMC in serum-free medium; for number of fibrocytes in culture: concentrations between 10 and 0.1 ng/ml. On the procedure: The rapid appearance of these cells, within 3 days of culture, was inhibited by human serum or plasma. To examine this process in more detail, PBMC were cultured at 5×10^5 cells per ml in serum-free medium containing increasing concentrations of human plasma for 6 days. […] The activity in the serum that inhibited fibrocyte formation was retained by a 30 kDa cutoff spin-filter (data not shown).
Plasma was fractionated by BaCl2 precipitation, heparin and ion exchange chromatography. Protein concentrations were assessed by spectrophotometry at 280 nm. Inhibition of fibrocyte differentiation was assessed by morphology. The fibrocyte inhibitory activity of a sample was defined as the reciprocal of the dilution at which it inhibited fibrocyte differentiation by 50%, when added to serum-free medium.
Serum amyloid P is a constitutive plasma protein and is closely related to CRP, the major acute phase protein in humans. […] Serum and plasma contain between 30-50 μg/ml SAP.
Cells were incubated in serum-free medium: RPMI (GibcoBRL Life, Invitrogen, Carlsbad, Calif., USA) supplemented with 10 mM HEPES (GibcoBRL/Life), 2 mM glutamine, 100 U/ml penicillin and 100 μg/ml streptomycin, 0.2% bovine serum albumin (BSA, Sigma), 5 μg/ml insulin (Sigma), 5 μg/ml iron-saturated transferrin (Sigma) and 5 ng/ml sodium selenite (Sigma). Normal human serum (Sigma), normal human plasma (Gulf Coast Regional Blood Center) or fetal calf serum (Sigma), column fractions, sera and synovial fluid from patients or purified proteins were added at the stated concentrations. Patient samples were obtained from a repository available to researchers at University of Texas Medical School at Houston. This repository keeps patient information confidential, and meets all NIH guidelines.
PBMC were cultured in 24 or 96 well tissue culture plates in 2 ml or 200 μl volumes respectively (Becton Dickinson, Franklin Lakes, N.J.) at 2.5×10^5 cells per ml in a humidified incubator containing 5% CO2 at 37° C. for the indicated times. Fibrocytes in 5 different 900 μm diameter fields of view were enumerated by morphology in viable cultures as adherent cells with an elongated spindle-shaped morphology as distinct from small lymphocytes or adherent monocytes. Alternatively cells were air dried, fixed in methanol and stained with haematoxylin and eosin (Hema 3 Stain, VWR, Houston, Tex.). Fibrocytes were counted using the above criterion and the presence of an oval nucleus. Enumeration of fibrocytes was performed on cells cultured for 6 days in flat-bottomed 96 well plates, with 2.5×10^4 cells per well. In addition, fibrocyte identity was confirmed by immunoperoxidase staining (see below). The fibrocyte inhibitory activity of a sample was defined as the reciprocal of the dilution at which it inhibited fibrocyte differentiation by 50%, when added to serum-free medium.
Experiments have shown that IL-4 and IL-13 are capable of promoting fibrocyte differentiation in vitro. Specifically, PBMC were cultured in serum-free medium in the presence of IL-4 or IL-13. […] Therefore a bandage or other topical agarose formulation as described above additionally containing IL-4 and/or IL-13 is expected to show further improvements in wound healing.

Take “SAP: commercially available purified human serum amyloid P (Calbiochem), a pentraxin plasma protein”: the “ability to inhibit fibrocyte differentiation” value is listed as “able to inhibit fibrocyte differentiation”. Moreover, the “activity from dilution curve” value (commercially available SAP) is “approximately 6.6×10^3 units/mg”. In addition, the “concentration of maximal inhibitory activity” value (commercially available purified SAP) stood at 1 µg/mL. Besides, for the setting “worked out from 0.5% plasma and 30-50 μg/ml SAP”, the “SAP concentration at the plasma dilution at which fibrocytes began to appear, comparable to the threshold concentration of purified SAP” value was 0.15 to 0.25 µg/mL.
For “IL-13: cytokine, activator of the fibrotic response”, the “number of fibrocytes in culture” value is given as “enhanced the number of fibrocytes”.

B1: Protein S: purified human protein S, vitamin K-dependent anticoagulant (Calbiochem) (protein, UniProt P07225 42-676, looked up)
Vitamin K-dependent protein S: ANSLLEETKQGNLERECIEELCNKEEAREVFENDPETDYFYPKYLVCLRSFQTGLFTAARQSTNAYPDLRSCVNAIPDQCSPLPCNEDGYMSCKDGKASFTCTCKPGWQGEKCEFDINECKDPSNINGGCSQICDNTPGSYHCSCKNGFVMLSNKKDCKDVDECSLKPSICGTAVCKNIPGDFECECPEGYRYNLKSKSCEDIDECSENMCAQLCVNYPGGYTCYCDGKKGFKLAQDQKSCEVVSVCLPLNLDTKYELLYLAEQFAGVVLYLKFRLPEISRFSAEFDFRTYDSEGVILYAESIDHSAWLLIALRGGKIEVQLKNEHTSKITTGGDVINNGLWNMVSVEELEHSISIKIAKEAVMDINKPGPLFKPENGLLETKVYFAGFPRKVESELIKPINPRLDGCIRSWNLMKQGASGIKEIIQEKQNKHCLVTVEKGSYYPGSGIAQFHIDYNNVSSAEGWHVNVTLNIRPSTGTGVMLALVSGNNTVPFAVSLVDSTSEKSQDILLSVENTVIYRIQALSLCSDQQSHLEFRVNRNNLELSTPLKIETISHEDLQRQLAVLDKAMKAKVATYLGGLPDVPFSATPVNAFYNGCMEVNINGVQLDLDEAISKHNDIRAHSCPSVWKKTKNS
Take B1: the “ability to inhibit fibrocyte differentiation” value is recorded as “only SAP was able to inhibit fibrocyte differentiation”.

B2: CRP: purified human C-reactive protein (Calbiochem) (protein, UniProt P02741 19-224, looked up)
C-reactive protein: QTDMSRKAFVFPKESDTSYVSLKAPLTKPLKAFTVCLHFYTELSSTRGYSIFSYATKRQDNEILIFWSKDIGYSFTVGGSEILFEVPEVTVAPVHICTSWESASGIVEFWVDGKPRVRKSLKKGYTVGAEASIILGQEQDSFGGNFEGSQSLVGDIGNVNMWDFVLSPDEINTIYLGGPFSPNVLNWRALKYEVQGEVFTKPQLWP
With B2, the “ability to inhibit fibrocyte differentiation” value is “only SAP was able to inhibit fibrocyte differentiation”.

B3: IL-4: cytokine, activator of the fibrotic response (protein, UniProt P05112 25-153, looked up)
Interleukin-4: HKCDITLQEIIKTLNSLTEQKTLCTELTVTDIFAASKNTTEKETFCRAATVLRQFYSHHEKDTRCLGATAQQFHRHKQLIRFLKRLDRNLWGLAGLNSCPVKEANQSTLENFLERLKTIMREKYSKCSS
Take B3: the “number of fibrocytes in culture” value is on record as “enhanced the number of fibrocytes”.
